Results taken from the supplement of paper PMC10307832.

How the values were obtained:
Test in all cases: relative viability (nuclei count vs DMSO), 5 days (fraction); higher = more cells survive
[1] = compound: C1CC2=C(C1)C=C(C=C2)OC3=NC(=C4C(=N3)N(C=N4)CC5=CC=C(C=C5)C6=CC=CC=C6)N[C@@H](CC7=CC=CC=C7)CO [QS11] + Nc1nc2[nH]cc(CCc3ccc(C(=O)N[C@@H](CCC(=O)O)C(=O)O)cc3)c2c(=O)[nH]1 [Pemetrexed] (partner 0.2 µM)
In short: (§1)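 Relative viability was taken as the ratio of nuclei in treated wells to nuclei in vehicle wells. Lung cancer cell lines in 1536-well plates received compounds by pin tool one day after seeding, either one drug alone or a fixed anchor-drug dose plus five library-drug doses (not always all listed) in √10 steps. Nuclei were counted on 4× images after 5 days of treatment, and values are medians of duplicate plates.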

[2] = compound: C[As](C)SC[C@H](NC(=O)CC[C@H](N)C(=O)O)C(=O)NCC(=O)O [Darinaparsin] + COc1cc2c(Oc3ccc(NC(=O)C4(C(=O)Nc5ccc(F)cc5)CC4)cc3F)ccnc2cc1OCCCN1CCOCC1 [Foretinib] (partner 0.25 µM)
In short: as §1

[3] = compound: C[As](C)SC[C@H](NC(=O)CC[C@H](N)C(=O)O)C(=O)NCC(=O)O [Darinaparsin] + Cc1nc(Nc2ncc(C(=O)Nc3c(C)cccc3Cl)s2)cc(N2CCN(CCO)CC2)n1 [Dasatinib] (partner 0.075 µM)
In short: as §1

[4] = compound: CC1=C(C=C(C=C1)NC(=O)C2=CC(=CC=C2)C(C)(C)C#N)NC3=CC4=C(C=C3)N=CN(C4=O)C [AZ628] + NC(=O)Nc1cc(-c2cccc(F)c2)sc1C(=O)N[C@H]1CCCNC1 [AZD7762] (partner 0.2 µM)
In short: as §1

Cell Line | relative viability ([1]; first compound 0.08 µM) | relative viability ([1]; first compound 0.253 µM) | relative viability ([1]; first compound 0.8 µM) | relative viability ([1]; first compound 2.53 µM) | relative viability ([1]; first compound 8 µM) | relative viability ([2]; first compound 0.08 µM) | relative viability ([2]; first compound 0.8 µM) | relative viability ([2]; first compound 2.53 µM) | relative viability ([2]; first compound 8 µM) | relative viability ([3]; first compound 0.08 µM) | relative viability ([3]; first compound 0.8 µM) | relative viability ([3]; first compound 2.53 µM) | relative viability ([3]; first compound 8 µM) | relative viability ([4]; first compound 0.08 µM) | relative viability ([4]; first compound 0.253 µM) | relative viability ([4]; first compound 0.8 µM) | relative viability ([4]; first compound 2.53 µM) | relative viability ([4]; first compound 8 µM)
NCI-H2228 | 0.342 | 0.337 | 0.324 | 0.374 | 0.372 | 1.42 | 0.935 | 0.949 | 0.891 | 0.71 | 0.606 | 0.447 | 0.686 | – | – | – | – | –
UMC-11 | 0.87 | 0.89 | 0.716 | 0.97 | 0.993 | 1.16 | 1.03 | 0.974 | 1.25 | 0.711 | 0.473 | 0.401 | 0.578 | – | – | – | – | –
Calu-6 | – | – | – | – | – | 1.04 | 1.02 | 0.861 | 0.938 | – | – | – | – | – | – | – | – | –
HCC-44 | 0.72 | 0.581 | 0.416 | 0.675 | 0.659 | – | – | – | – | – | – | – | – | 1.01 | 0.945 | 1.08 | 1.04 | 1.24
NCI-H727 | – | – | – | – | – | 0.917 | 0.863 | 1.11 | 1 | 0.401 | 0.356 | 0.414 | 0.416 | 0.504 | – | – | 0.369 | 0.333
SK-MES-1 | 1.08 | 0.94 | 0.832 | 0.977 | 0.863 | 1.05 | 0.808 | 0.595 | 1.05 | 0.284 | 0.258 | 0.344 | 0.345 | – | – | – | – | –
NCI-H1623 | – | – | – | – | – | 0.902 | 0.832 | 0.871 | 0.868 | 0.574 | 0.548 | 0.518 | 0.553 | – | – | – | – | –
NCI-H661 | 1.03 | 0.911 | 0.794 | 0.953 | 0.857 | 1.01 | 0.995 | 1.08 | 1.26 | 0.981 | 0.772 | 0.89 | 0.948 | – | – | – | – | –
SK-LU-1 | 0.993 | 1.07 | 0.913 | 0.835 | 0.781 | 1.13 | 0.76 | 0.65 | 0.958 | 0.173 | 0.107 | 0.173 | 0.183 | – | – | – | – | –
SW 1573 | 0.811 | 0.926 | 0.792 | 0.418 | 0.539 | 1.05 | 1.01 | 0.867 | 1.33 | 0.498 | 0.625 | 0.299 | 0.656 | – | – | – | – | –
ABC-1 | – | – | – | – | – | 1.36 | 0.995 | 1.18 | 1.08 | 0.56 | 0.451 | 0.572 | 0.715 | 0.761 | 0.786 | 0.768 | 0.865 | 0.745
NCI-H2023 | 0.293 | 0.276 | 0.241 | 0.197 | 0.194 | 0.847 | 0.78 | 0.821 | 0.904 | 0.724 | 0.656 | 0.352 | 0.729 | – | – | – | – | –
COR-L23 | 0.196 | 0.179 | 0.206 | 0.198 | 0.199 | 1.21 | 1.04 | 0.934 | 1.34 | 0.694 | 0.493 | 0.39 | 0.497 | – | – | – | – | –
NCI-H1703 | – | – | – | – | – | 0.377 | 0.328 | – | 0.307 | – | – | – | – | 0.118 | 0.124 | 0.134 | 0.139 | 0.0724
NCI-H1563 | 0.806 | 0.838 | 0.722 | 0.881 | 0.886 | 1.02 | 0.901 | 0.826 | 0.999 | 0.379 | 0.442 | 0.5 | 0.479 | – | – | – | – | –
NCI-H1299 | – | – | – | – | – | 1.14 | 1.06 | 1.09 | 1.11 | – | – | – | – | – | – | – | – | –
NCI-H522 | 0.824 | 1.02 | 0.878 | 1 | 0.884 | – | – | – | – | 0.853 | 0.902 | 0.804 | 0.918 | 0.826 | 0.721 | 0.749 | 0.863 | 0.708
NCI-H1648 | 0.762 | 0.713 | 0.637 | 0.748 | 0.875 | – | – | – | – | – | – | – | – | 0.871 | 0.579 | 0.524 | 0.494 | 0.587
NCI-H1792 | – | 0.603 | 0.925 | 0.629 | 0.514 | – | – | – | – | 1.28 | 0.849 | 0.804 | 0.957 | 0.776 | 0.668 | 0.575 | 0.541 | 0.385
A549 | – | – | – | – | – | 1.27 | 0.991 | 0.896 | 1.41 | – | – | – | – | – | – | – | – | –
NCI-H2009 | 1.08 | 1.06 | 1.01 | 0.978 | 0.985 | 0.435 | 1.18 | 1.15 | 1.33 | 0.307 | 0.32 | 0.266 | 0.233 | – | – | – | – | –
COR-L 105 | 1.14 | 0.96 | 1.04 | 0.955 | 0.942 | 1.12 | 1.2 | 1.1 | 1.04 | 0.32 | 0.31 | 0.309 | 0.277 | – | – | – | – | –
EBC-1 | – | – | – | – | – | 0.103 | 0.0925 | 0.123 | 0.0888 | – | – | – | – | – | – | – | – | –
IA-LM | – | – | – | – | – | 1.51 | 1.27 | 1.35 | 1.55 | – | – | – | – | – | – | – | – | –
NCI-H520 | 0.791 | 0.871 | 0.863 | 0.783 | 0.488 | 1.12 | 0.662 | 0.845 | 0.871 | 0.215 | 0.237 | 0.189 | 0.212 | – | – | – | – | –
NCI-H1650 | 0.472 | 0.33 | 0.321 | 0.34 | 0.366 | 0.869 | 1.06 | 0.791 | 1.33 | 0.397 | 0.36 | 0.343 | 0.297 | – | – | – | – | –
